Laboratory results published in patent US8022206B2 (OSI Pharmaceuticals, LLC, priority 2008, dated 2011).

How the values were obtained:
[1] = target: MET (human) (Homo sapiens, UniProt P08581); assay: MET (human) AlphaScreen kinase assay, Km of ATP; assay type: biochemical; conditions: AlphaScreen, Km of ATP; read-out: Met biochemical IC50
Summary of the method: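 Human MET at lot-optimised concentration in 50 mM Tris pH 7.4 buffer with 1 mM DTT, compound at 1% DMSO final; enzyme starts the reaction, 60 min at RT.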

[2] = target: RON (human) (Homo sapiens, UniProt Q04912); assay: RON (human) AlphaScreen kinase assay, Km of ATP; assay type: biochemical; conditions: AlphaScreen, Km of ATP; read-out: RON biochemical IC50
Summary of the method: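 Detection used PT66 AlphaScreen beads added in Tris pH 7.5/NaCl/EDTA/BSA buffer, read after 1 h incubation. Vehicle-only DMSO wells served as controls.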

Chain of MET (human) (P08581 25-1390): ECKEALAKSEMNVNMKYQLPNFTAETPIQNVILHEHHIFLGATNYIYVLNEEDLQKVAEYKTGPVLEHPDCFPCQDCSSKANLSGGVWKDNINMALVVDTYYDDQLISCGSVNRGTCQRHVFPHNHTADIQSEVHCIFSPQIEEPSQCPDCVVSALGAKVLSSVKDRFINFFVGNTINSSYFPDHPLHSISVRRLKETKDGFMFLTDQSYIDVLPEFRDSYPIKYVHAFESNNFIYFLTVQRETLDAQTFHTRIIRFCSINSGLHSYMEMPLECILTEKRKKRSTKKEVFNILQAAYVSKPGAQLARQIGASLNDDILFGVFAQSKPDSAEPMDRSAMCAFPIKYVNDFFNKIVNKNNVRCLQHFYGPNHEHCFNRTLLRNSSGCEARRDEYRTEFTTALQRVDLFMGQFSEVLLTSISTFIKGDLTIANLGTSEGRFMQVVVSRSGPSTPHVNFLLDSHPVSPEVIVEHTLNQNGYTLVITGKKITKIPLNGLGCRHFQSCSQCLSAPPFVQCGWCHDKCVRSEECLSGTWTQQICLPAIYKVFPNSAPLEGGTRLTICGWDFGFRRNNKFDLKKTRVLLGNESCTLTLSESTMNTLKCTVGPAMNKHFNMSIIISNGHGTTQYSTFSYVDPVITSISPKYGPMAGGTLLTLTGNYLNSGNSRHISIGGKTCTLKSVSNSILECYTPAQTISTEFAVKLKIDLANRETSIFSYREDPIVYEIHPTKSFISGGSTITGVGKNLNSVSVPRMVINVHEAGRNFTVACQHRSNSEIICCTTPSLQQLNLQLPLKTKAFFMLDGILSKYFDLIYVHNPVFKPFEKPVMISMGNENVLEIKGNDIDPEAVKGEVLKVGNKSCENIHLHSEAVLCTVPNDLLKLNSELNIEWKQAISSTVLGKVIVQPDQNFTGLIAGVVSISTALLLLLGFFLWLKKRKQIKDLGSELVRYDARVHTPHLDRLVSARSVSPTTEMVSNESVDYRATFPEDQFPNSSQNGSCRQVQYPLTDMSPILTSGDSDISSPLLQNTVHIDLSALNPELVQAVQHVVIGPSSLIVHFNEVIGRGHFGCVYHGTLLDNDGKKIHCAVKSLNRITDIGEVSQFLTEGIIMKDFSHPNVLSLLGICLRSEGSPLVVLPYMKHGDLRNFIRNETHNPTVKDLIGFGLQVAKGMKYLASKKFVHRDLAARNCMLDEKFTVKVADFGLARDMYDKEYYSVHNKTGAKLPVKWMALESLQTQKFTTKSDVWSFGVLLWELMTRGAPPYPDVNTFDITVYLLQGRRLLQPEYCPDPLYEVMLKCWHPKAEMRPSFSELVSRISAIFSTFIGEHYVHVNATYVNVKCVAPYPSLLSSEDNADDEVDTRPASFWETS
Chain of RON (human) (Q04912 25-1400): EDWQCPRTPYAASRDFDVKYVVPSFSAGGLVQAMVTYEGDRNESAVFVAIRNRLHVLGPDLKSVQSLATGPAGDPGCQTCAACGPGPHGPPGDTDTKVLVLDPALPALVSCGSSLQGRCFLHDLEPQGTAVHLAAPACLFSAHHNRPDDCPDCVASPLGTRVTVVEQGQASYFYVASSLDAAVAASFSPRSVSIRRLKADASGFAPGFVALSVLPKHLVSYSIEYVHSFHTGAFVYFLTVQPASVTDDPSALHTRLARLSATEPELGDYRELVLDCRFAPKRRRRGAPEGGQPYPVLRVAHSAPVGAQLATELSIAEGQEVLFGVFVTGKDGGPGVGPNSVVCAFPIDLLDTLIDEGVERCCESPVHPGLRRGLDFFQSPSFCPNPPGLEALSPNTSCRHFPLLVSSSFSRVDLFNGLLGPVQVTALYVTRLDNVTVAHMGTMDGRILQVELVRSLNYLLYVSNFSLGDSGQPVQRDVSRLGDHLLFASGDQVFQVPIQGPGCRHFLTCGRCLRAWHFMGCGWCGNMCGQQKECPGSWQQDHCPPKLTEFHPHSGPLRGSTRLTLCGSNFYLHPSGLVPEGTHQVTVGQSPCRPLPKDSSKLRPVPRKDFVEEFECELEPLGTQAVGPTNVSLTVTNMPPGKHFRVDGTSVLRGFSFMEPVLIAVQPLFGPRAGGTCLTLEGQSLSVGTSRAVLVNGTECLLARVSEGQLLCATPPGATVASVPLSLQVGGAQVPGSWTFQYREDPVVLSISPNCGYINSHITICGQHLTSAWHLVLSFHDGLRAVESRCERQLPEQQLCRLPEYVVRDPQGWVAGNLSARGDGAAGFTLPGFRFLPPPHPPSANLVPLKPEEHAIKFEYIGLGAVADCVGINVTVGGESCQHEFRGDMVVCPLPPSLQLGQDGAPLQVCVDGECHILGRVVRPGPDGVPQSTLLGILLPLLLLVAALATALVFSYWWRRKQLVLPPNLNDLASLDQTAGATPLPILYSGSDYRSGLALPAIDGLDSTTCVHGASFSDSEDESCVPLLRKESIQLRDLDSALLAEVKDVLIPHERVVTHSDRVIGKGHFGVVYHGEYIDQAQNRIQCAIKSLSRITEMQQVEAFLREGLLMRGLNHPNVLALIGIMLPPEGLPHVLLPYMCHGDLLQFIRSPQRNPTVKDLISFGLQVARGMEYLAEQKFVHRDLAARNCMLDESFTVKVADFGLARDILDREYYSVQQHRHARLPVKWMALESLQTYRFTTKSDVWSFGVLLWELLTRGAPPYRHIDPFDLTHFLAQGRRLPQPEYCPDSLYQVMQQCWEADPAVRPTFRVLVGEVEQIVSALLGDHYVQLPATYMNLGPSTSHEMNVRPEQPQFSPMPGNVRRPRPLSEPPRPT

Q: With C[C@@H](Oc1c(N)ncc2c(C3=CC(N)CCC3)coc12)c1c(Cl)ccc(F)c1Cl (stereo partly drawn) [Example 146, 3-(3-Aminocyclohex-1-enyl)-7-[(R)-1-(2,6-dichloro-3-fluoro-phenyl)ethoxy]furo[3,2-c]pyridin-6-ylamine] as the compound, how does the IC50 [1] read?
A: The IC50 was < 500 nM.

Q: And the IC50 [2]?
A: The IC50 was 500 to 5000 nM.

Q: With Nc1ncc2c(-c3cnn(C4CCNCC4)c3)coc2c1O[C@H]1CCCC[C@H]1c1ccccc1 [Example 409] as the compound, how does the IC50 [1] read?
A: Its IC50 is 500 to 5000 nM.

Q: What about the IC50 [2] of the same compound?
A: Its IC50 is 500 to 5000 nM.

Q: Which IC50 [1] does the source give for C[C@@H](Oc1c(N)ncc2c(C(=O)NCCN)coc12)c1c(Cl)ccc(F)c1Cl [Example 193, 6-Amino-7-[(R)-1-(2,6-dichloro-3-fluorophenyl)ethoxy]furo[3,2-c]pyridine-3-carboxylic acid (3-aminoethyl)amide] here?
A: Its IC50 is < 500 nM.

Q: What about the IC50 [2] of the same compound?
A: Its IC50 is 500 to 5000 nM.

Q: With C[C@@H](Oc1c(N)ncc2c(C3=CC4CCC(C3)N4C)coc12)c1c(Cl)ccc(F)c1Cl (stereo partly drawn) [Example 164, 7-[(1R)-1-(2,6-Dichloro-3-fluorophenyl)ethoxy]-3-(8-methyl-8-azabicyclo[3.2.1]oct-2-en-3-yl)furo[3,2-c]pyridin-6-amine] as the compound, how does the IC50 [1] read?
A: Its IC50 is < 500 nM.

Q: What about the IC50 [2] of the same compound?
A: Its IC50 is < 500 nM.

Q: CC(Oc1c(N)ncc2c(-c3cnn(C4CCNCC4)c3)coc12)c1cccc(C(N)=O)c1 (centres unmarked) [Example 411, 3-{1-[6-Amino-3-(1-piperidin-4-yl-1H-pyrazol-4-yl)furo[3,2-c]pyridin-7-yloxy]ethyl}benzamide] was tested. Which IC50 [1] did it give?
A: The IC50 was 500 to 5000 nM.

Q: And the IC50 [2]?
A: Its IC50 is 500 to 5000 nM.

Q: For C[C@@H](Oc1c(N)ncc2c(C3=CCN(C(=O)c4ncc[nH]4)CC3)coc12)c1c(Cl)ccc(F)c1Cl [Example 232, (4-{6-Amino-7-[(R)-1-(2,6-dichloro-3-fluorophenyl)ethoxy]-furo[3,2-c]pyridin-3-yl}-3,6-dihydro-2H-pyridin-1-yl)-(1H-imidazol-2-yl)-methanone], which IC50 [1] is on record?
A: The IC50 was 500 to 5000 nM.

Q: What about the IC50 [2] of the same compound?
A: The IC50 was 500 to 5000 nM.

Q: With C[C@@H](Oc1c(N)ncc2c(-c3ccc(N4CCOCC4)nc3)coc12)c1c(Cl)ccc(F)c1Cl [Example 107, 7-[(R)-1-(2,6-Dichloro-3-fluorophenyl)ethoxy]-3-(6-morpholin-4-ylpyridin-3-yl)-furo[3,2-c]pyridin-6-ylamine] as the compound, how does the IC50 [1] read?
A: Its IC50 is 500 to 5000 nM.

Q: What about the IC50 [2] of the same compound?
A: The IC50 was 500 to 5000 nM.

Q: For C[C@@H](Oc1c(N)ncc2c(C3=CCN(C(=O)C(C)(C)N)CC3)coc12)c1c(Cl)ccc(F)c1Cl [Example 24, 2-Amino-1-(4-{6-amino-7-[(R)-1-(2,6-dichloro-3-fluorophenyl)-ethoxy]-furo[3,2-c]pyridin-3-yl}-3,6-dihydro-2H-pyridin-1-yl)-2-methylpropan-1-one], which IC50 [1] is on record?
A: The IC50 was < 500 nM.

Q: And the IC50 [2]?
A: Its IC50 is < 500 nM.

Q: With C[C@@H](Oc1c(N)ncc2c(-c3cccc(NS(=O)(=O)c4cccs4)c3)coc12)c1c(Cl)ccc(F)c1Cl [Example 247, Thiophene-2-sulfonic acid (3-{6-amino-7-[(R)-1-(2,6-dichloro-3-fluorophenyl)-ethoxy]-furo[3,2-c]pyridin-3-yl}phenyl)amide] as the compound, how does the IC50 [1] read?
A: The IC50 was 500 to 5000 nM.

Q: What about the IC50 [2] of the same compound?
A: Its IC50 is 5000 to 20000 nM.

Q: What does the source list for C[C@@H](Oc1c(N)ncc2c(-c3cnn(C)c3)coc12)c1c(Cl)ccc(F)c1Cl [Example 4, 7-[(R)-1-(2,6-Dichloro-3-fluorophenyl)-ethoxy]-3-(1-methyl-1H-pyrazol-4-yl)-furo[3,2-c]pyridin-6-ylamine]?
A: IC50 [1]: 500 to 5000 nM; IC50 [2]: 500 to 5000 nM

Q: How did the IC50 [1] turn out when Nc1ncc2c(-c3cnn(C4CCNCC4)c3)coc2c1OC1CCCc2cccc(Cl)c21 (centres unmarked) [Example 389, 7-(8-Chloro-1,2,3,4-tetrahydronaphthalen-1-yloxy)-3-(1-piperidin-4-yl-1H-pyrazol-4-yl)furo[3,2-c]pyridin-6-ylamine] was run?
A: The IC50 was 500 to 5000 nM.

Q: What about the IC50 [2] of the same compound?
A: The IC50 was 500 to 5000 nM.

Q: With CC(C)CN1CC=C(c2coc3c(O[C@H](C)c4c(Cl)ccc(F)c4Cl)c(N)ncc23)CC1 [Example 41, 7-[(R)-1-(2,6-Dichloro-3-fluorophenyl)-ethoxy]-3-(1-isobutyl-1,2,3,6-tetrahydropyridin-4-yl)-furo[3,2-c]pyridin-6-ylamine] as the compound, how does the IC50 [1] read?
A: The IC50 was < 500 nM.

Q: And the IC50 [2]?
A: The IC50 was < 500 nM.

Q: With C[C@@H](Oc1c(N)ncc2c(C3=CCN(C(=O)[C@H](N)CO)CC3)coc12)c1c(Cl)ccc(F)c1Cl [Example 255, (2R)-2-Amino-1-[4-{6-amino-7-[(1R)-1-(2,6-dichloro-3-fluoro-phenyl)ethoxy]furo[3,2-c]pyridin-3-yl}-3,6-dihydropyridin-1(2H)-yl]-3-hydroxypropan-1-one] as the compound, how does the IC50 [1] read?
A: The IC50 was < 500 nM.

Q: What about the IC50 [2] of the same compound?
A: Its IC50 is < 500 nM.

Q: Which results are given for C[C@@H](Oc1c(N)ncc2c(-c3ccc(C(=O)NCCN4CCOCC4)cc3)coc12)c1c(Cl)ccc(F)c1Cl [Example 100, 4-{6-Amino-7-[(R)-1-(2,6-dichloro-3-fluorophenyl)ethoxy]-furo[3,2-c]pyridin-3-yl}-N-(2-morpholin-4-ylethyl)benzamide]?
A: IC50 [1]: 500 to 5000 nM; IC50 [2]: 500 to 5000 nM

Q: Which results are given for C[C@@H](Oc1c(N)ncc2c(C(=O)NCC3CCOCC3)coc12)c1c(Cl)ccc(F)c1Cl [Example 187, 6-Amino-7-[(R)-1-(2,6-dichloro-3-fluorophenyl)ethoxy]furo[3,2-c]pyridine-3-carboxylic acid (tetrahydropyran-4-ylmethyl)amide]?
A: IC50 [1]: 500 to 5000 nM; IC50 [2]: 500 to 5000 nM

Q: How did the IC50 [1] turn out when CC(Oc1c(N)ncc2c(-c3cnn(C4CCNCC4)c3)coc12)c1c(Cl)c(F)cc(OC2CCNCC2)c1Cl (centres unmarked) [Example 158, 7-{1-[2,6-Dichloro-3-fluoro-5-(piperidin-4-yloxy)phenyl]ethoxy}-3-[1-(piperidin-4-yl)-1H-pyrazol-4-yl]furo[3,2-c]pyridin-6-amine] was run?
A: Its IC50 is < 500 nM.

Q: And the IC50 [2]?
A: The IC50 was < 500 nM.

Q: How did the IC50 [1] turn out when C[C@@H](Oc1c(N)ncc2c(-c3ccc(CN4CCNCC4)s3)coc12)c1c(Cl)ccc(F)c1Cl [Example 217, 7-[(R)-1-(2,6-Dichloro-3-fluorophenyl)ethoxy]-3-(5-piperazin-1-ylmethylthiophen-2-yl)-furo[3,2-c]pyridin-6-ylamine] was run?
A: The IC50 was < 500 nM.

Q: And the IC50 [2]?
A: Its IC50 is < 500 nM.

Q: With COCCCNC(=O)c1coc2c(O[C@H](C)c3c(Cl)ccc(F)c3Cl)c(N)ncc12 [Example 191, 6-Amino-7-[(R)-1-(2,6-dichloro-3-fluorophenyl)ethoxy]furo[3,2-c]pyridine-3-carboxylic acid (3-methoxypropyl)amide] as the compound, how does the IC50 [1] read?
A: Its IC50 is 500 to 5000 nM.

Q: And the IC50 [2]?
A: The IC50 was 500 to 5000 nM.

Q: How did the IC50 [1] turn out when C[C@@H](Oc1c(N)ncc2c(-c3csc(C(=O)N4CCC(O)CC4)c3)coc12)c1c(Cl)ccc(F)c1Cl [Example 313, (4-{6-Amino-7-[(R)-1-(2,6-dichloro-3-fluorophenyl)ethoxy]-furo[3,2-c]pyridin-3-yl}-thiophen-2-yl)-(4-hydroxypiperidin-1-yl)methanone] was run?
A: Its IC50 is 500 to 5000 nM.

Q: What about the IC50 [2] of the same compound?
A: Its IC50 is 500 to 5000 nM.

Q: For C[C@@H](Oc1c(N)ncc2c(-c3ccc(CO)s3)coc12)c1c(Cl)ccc(F)c1Cl [Example 212, (5-{6-Amino-7-[(R)-1-(2,6-dichloro-3-fluorophenyl)ethoxy]-furo[3,2-c]pyridin-3-yl}-thiophen-2-yl)methanol], which IC50 [1] is on record?
A: Its IC50 is 500 to 5000 nM.

Q: And the IC50 [2]?
A: Its IC50 is 500 to 5000 nM.

Q: For COC(=O)c1ccc(C(C)Oc2c(N)ncc3c(-c4cnn(C5CCNCC5)c4)coc23)cc1 (centres unmarked) [Example 422, 4-{1-[6-Amino-3-(1-piperidin-4-yl-1H-pyrazol-4-yl)furo[3,2-c]pyridin-7-yloxy]ethyl}benzoic acid methyl ester], which IC50 [1] is on record?
A: The IC50 was 500 to 5000 nM.

Q: What about the IC50 [2] of the same compound?
A: Its IC50 is 500 to 5000 nM.

Q: For C[C@@H](Oc1c(N)ncc2c(-c3cnc(N4CCOCC4)nc3)coc12)c1c(Cl)ccc(F)c1Cl [Example 283, 7-[(R)-1-(2,6-Dichloro-3-fluorophenyl)ethoxy]-3-(2-morpholin-4-ylpyrimidin-5-yl)furo[3,2-c]pyridin-6-ylamine], which IC50 [1] is on record?
A: Its IC50 is 500 to 5000 nM.

Q: And the IC50 [2]?
A: The IC50 was 500 to 5000 nM.
